Pest or weed control, Corn plant response rating (crop injury, 0 = no effect, 100 = complete kill) and plant injury data for two molecules are collected here from patent publication US12077503B2, “Substituted cyclic amides and their use as herbicides” (FMC CORPORATION, priority 2015, dated 2024).

Holding throughout (type): in vivo
Assay [1] has as its system pigweed (Amaranthus retroflexus). Briefly: Test A preemergence. Conditions: Amaranthus retroflexus, pre-emergence, 240 h, read-out: Plant response rating, Pigweed; for pest or weed control at 125 g/ha: 125 g ai/ha; for pest or weed control at 500 g/ha: 500 g ai/ha.
Assay [2] has as its system ragweed (common ragweed, Ambrosia elatior). Kind of assay: Test A preemergence. Conditions: Ambrosia artemisiifolia, pre-emergence, 240 h, read-out: Plant response rating, Ragweed; for pest or weed control at 125 g/ha: 125 g ai/ha; for pest or weed control at 500 g/ha: 500 g ai/ha. The gist of the method:
(§1)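 Seeded soil received test chemicals as a preemergence directed spray, and seedlings at one to two leaves, 2–10 cm tall, received them postemergence, in a non-phytotoxic, surfactant-containing solvent mixture. Pots were held in a greenhouse for approximately 10 d, then rated for injury from 0, no effect, to 100, complete control.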

The subject of assay [3] is Kochia (Kochia scoparia). Briefly: Test A preemergence. Particulars: Bassia scoparia, pre-emergence, 240 h, read-out: Plant response rating, Kochia; for pest or weed control at 125 g/ha: 125 g ai/ha; for pest or weed control at 500 g/ha: 500 g ai/ha. The gist of the method:
as §1

Assay [4] relates to barnyardgrass (Echinochloa crus-galli). Kind of assay: Test A preemergence. Conditions: Echinochloa crus-galli, pre-emergence, 240 h, read-out: Plant response rating, Barnyardgrass; for pest or weed control at 125 g/ha: 125 g ai/ha; for pest or weed control at 500 g/ha: 500 g ai/ha. The gist of the method:
as §1

Assay [5] has as its system ryegrass, Italian (Italian ryegrass, Lolium multiflorum). Briefly: Test A preemergence. Particulars: Lolium multiflorum, pre-emergence, 240 h, read-out: Plant response rating, Ryegrass, Italian; for pest or weed control at 125 g/ha: 125 g ai/ha. In a few lines:
as §1

Assay [6] deals with giant foxtail (Setaria faberii). Briefly: Test A preemergence. Particulars: Setaria faberi, pre-emergence, 240 h, read-out: Plant response rating, Foxtail, Giant; for pest or weed control at 125 g/ha: 125 g ai/ha; for pest or weed control at 500 g/ha: 500 g ai/ha. The gist of the method:
as §1

The test system of assay [7] is pigweed (Amaranthus retroflexus). Kind of assay: Test A postemergence. Particulars: Amaranthus retroflexus, post-emergence, 240 h; for pest or weed control at 125 g/ha: 125 g ai/ha. The gist of the method:
as §1

The test system of assay [8] is Galium (catchweed bedstraw, Galium aparine). Briefly: Test A postemergence. Conditions: Galium, post-emergence, 240 h; for pest or weed control at 125 g/ha: 125 g ai/ha. In a few lines: as §1
Assay [9] has as its system ragweed (common ragweed, Ambrosia elatior). Briefly: Test A postemergence. Conditions: Ambrosia artemisiifolia, post-emergence, 240 h; for pest or weed control at 125 g/ha: 125 g ai/ha. The gist of the method: as §1
The test system of assay [10] is barnyardgrass (Echinochloa crus-galli). Kind of assay: Test A postemergence. Conditions: Echinochloa crus-galli, post-emergence, 240 h; for pest or weed control at 125 g/ha: 125 g ai/ha. In a few lines: as §1
In assay [11] the test system is corn (Zea mays). Briefly: Test A postemergence. Particulars: Zea mays, post-emergence, 240 h. In a few lines:
as §1

In assay [12] the test system is ryegrass, Italian (Italian ryegrass, Lolium multiflorum). Kind of assay: Test A postemergence. Conditions: Lolium multiflorum, post-emergence, 240 h; for pest or weed control at 125 g/ha: 125 g ai/ha. In a few lines:
as §1

In assay [13] the test system is giant foxtail (Setaria faberii). Briefly: Test A postemergence. Particulars: Setaria faberi, post-emergence, 240 h; for pest or weed control at 125 g/ha: 125 g ai/ha. The gist of the method:
as §1

Assay [14] concerns blackgrass (Alopecurus myosuroides). Kind of assay: Test A postemergence. Conditions: Alopecurus myosuroides, post-emergence, 240 h; for pest or weed control at 125 g/ha: 125 g ai/ha. The gist of the method: as §1
[15] abbreviates: preemergence, visual rating after approx. 10 d, 0 to 100 scale where 0 is no effect and 100 is complete control.
Where [16] appears, read: preemergence, 0 to 100 scale, 0 = no effect, 100 = complete control.
Where [17] appears, read: preemergence, 0 to 100 scale (0 no effect, 100 complete control).
The mark [18] stands for this setting: Preemergence, 0 to 100 scale (0 no effect, 100 complete control).

Read-outs that look alike come from different tables or passages of the source.

On to `CN1C[C@H](c2nccs2)[C@@H](C(=O)Nc2ccccc2F)C1=O` [Compound 773], for which the pest or weed control at 125 g/ha in assay [1] (setting [15]), in assay [2] (setting [15]), in [3] (setting [15]), in assay [4] (setting [15]), in [5] (setting [15]) and in assay [6] (setting [15]) was 0% each time. The pest or weed control at 125 g/ha in [7] (postemergence, visual injury after approximately 10 d, 0 to 100 scale (0 no effect, 100 complete control), read-out: Plant response rating, Pigweed) worked out at 0%; in assay [8] (postemergence, visual injury after approximately 10 d, 0 to 100 scale (0 no effect, 100 complete control), read-out: Plant response rating, Galium), 0%; in assay [9] (postemergence, visual injury after approximately 10 d, 0 to 100 scale (0 no effect, 100 complete control), read-out: Plant response rating, Ragweed), 0%; in [10] (postemergence, visual injury after approximately 10 d, 0 to 100 scale (0 no effect, 100 complete control), read-out: Plant response rating, Barnyardgrass), 0%; in [12] (postemergence, visual injury after approximately 10 d, 0 to 100 scale (0 no effect, 100 complete control), read-out: Plant response rating, Ryegrass, Italian), 0%; in assay [13] (postemergence, visual injury after approximately 10 d, 0 to 100 scale (0 no effect, 100 complete control), read-out: Plant response rating, Foxtail, Giant) it was 0%. Moreover, the pest or weed control at 125 g/ha in assay [14] (postemergence, visual injury after approximately 10 d, 0 to 100 scale (0 no effect, 100 complete control), read-out: Plant response rating, Blackgrass) worked out at 0%. For the same molecule, the pest or weed control at 500 g/ha in assay [1] (setting [16]), in assay [2] (setting [16]), in assay [3] (setting [16]), in assay [4] (setting [16]) and in [6] (setting [16]) was 0% throughout. In assay [11] (125 g ai/ha, postemergence, visual injury after approximately 10 d, 0 to 100 scale (0 no effect, 100 complete control)), this molecule came in with a Corn plant response rating (crop injury, 0 = no effect, 100 = complete kill) at 125 g/ha of 0%.
As for `CN1C[C@H](c2ccc(C(F)(F)F)cc2)[C@@H](C(=O)Nc2cccc(F)c2C#N)C1=O` [Compound 1380], the pest or weed control at 500 g/ha in [1] (setting [17]) turned out to be 90%; in assay [2] (setting [17]) it was 80%; in assay [3] (setting [17]), 90%; in [4] (setting [17]), 100%; in [5] (500 g ai/ha, preemergence, 0 to 100 scale (0 no effect, 100 complete control)), 50%; in [6] (setting [17]), 100%. Besides, the pest or weed control at 500 g/ha in [7] (Postemergence, 500 g ai/ha, visual injury, 0 to 100 scale (0 no effect, 100 complete control), approx. 10 d, read-out: Plant response rating, Pigweed) stood at 60%; in assay [8] (Postemergence, 500 g ai/ha, visual injury, 0 to 100 scale (0 no effect, 100 complete control), approx. 10 d, read-out: Plant response rating, Galium), 50%; in [9] (Postemergence, 500 g ai/ha, visual injury, 0 to 100 scale (0 no effect, 100 complete control), approx. 10 d, read-out: Plant response rating, Ragweed), 50%; in assay [10] (Postemergence, 500 g ai/ha, visual injury, 0 to 100 scale (0 no effect, 100 complete control), approx. 10 d, read-out: Plant response rating, Barnyardgrass) it was 80%; in assay [12] (Postemergence, 500 g ai/ha, visual injury, 0 to 100 scale (0 no effect, 100 complete control), approx. 10 d, read-out: Plant response rating, Ryegrass, Italian) it was 60%; in [13] (Postemergence, 500 g ai/ha, visual injury, 0 to 100 scale (0 no effect, 100 complete control), approx. 10 d, read-out: Plant response rating, Foxtail, Giant), 90%. The pest or weed control at 500 g/ha in [14] (Postemergence, 500 g ai/ha, visual injury, 0 to 100 scale (0 no effect, 100 complete control), approx. 10 d, read-out: Plant response rating, Blackgrass) worked out at 60%. For the same molecule, the pest or weed control at 125 g/ha was found to be 80% in [1] (setting [18]); 70% in assay [2] (setting [18]); 80% in [3] (setting [18]); 90% in [4] (setting [18]); 50% in assay [5] (setting [18]); 100% in [6] (setting [18]). Further, the pest or weed control at 125 g/ha in assay [7] (Postemergence, visual rating about 10 d after treatment, read-out: Pigweed plant response rating (0 to 100 scale)) came to 50%; in assay [8] (Postemergence, visual rating about 10 d after treatment, read-out: Galium plant response rating (0 to 100 scale)), 50%; in [9] (Postemergence, visual rating about 10 d after treatment, read-out: Ragweed plant response rating (0 to 100 scale)), 40%; in [10] (Postemergence, visual rating about 10 d after treatment, read-out: Barnyardgrass plant response rating (0 to 100 scale, 0 no effect, 100 complete control)) it was 60%; in [12] (Postemergence, visual rating about 10 d after treatment, read-out: Ryegrass, Italian plant response rating (0 to 100 scale)), 50%; in [13] (Postemergence, visual rating about 10 d after treatment, read-out: Foxtail, Giant plant response rating (0 to 100 scale)), 90%. In assay [14] (Postemergence, visual rating about 10 d after treatment, read-out: Blackgrass plant response rating (0 to 100 scale)), the pest or weed control at 125 g/ha came out at 40%. For the same molecule, the plant injury at 125 g/ha in [11] (125 g ai/ha, Postemergence, visual rating about 10 d after treatment, read-out: Corn plant response rating (0 to 100 scale)) was 50%. In assay [11] (Postemergence, 500 g ai/ha, visual injury, 0 to 100 scale (0 no effect, 100 complete control), approx. 10 d), this molecule came in with a Corn plant response rating (crop injury, 0 = no effect, 100 = complete kill) at 500 g/ha of 80%.
